We go through 16 compounds from US20140135270A1, “MACROCYCLIC COMPOUNDS FOR INHIBITION OF INHIBITORS OF APOPTOSIS” (Ensemble Therapeutics Corp., priority 2012, published 2014).

pIC50: −log10 of the molar value. Where two headings read alike, the source gives them in different places.

The term pIC50 denotes −log10 of the IC50, conventionally taken in molar units.

For data set [1] the following is noted: the molecule shown is the open-chain precursor, rcm bond.
The target of data set [2] is T1, His-BIR2 (124-240/C202A/C213G) (Homo sapiens, UniProt P98170, C202A/C213G).
T1 construct: additions of His-BIR2 (124-240/C202A/C213G), Biotinylated SMAC peptide
T1 sequence (P98170 124-240 C202A/C213G): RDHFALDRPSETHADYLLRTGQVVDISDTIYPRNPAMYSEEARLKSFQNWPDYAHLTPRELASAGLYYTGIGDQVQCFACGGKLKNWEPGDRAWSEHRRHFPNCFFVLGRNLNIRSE
The experiment in a line: XIAP-BIR2/SMAC Peptide AlphaScreen Assay. It is filed as binding. The method, then:
C. XIAP-BIR2/SMAC Peptide AlphaScreen Assay
Assays were performed in white, flat-bottom, 384-well ProxiPlates (Perkin Elmer). […]. The reaction was incubated at room temperature for 60 minutes. After 60 minutes, 2.5 μL of Alphascreen detection reagent (Perkin Elmer) was added to the reaction mixture and incubated at room temperature in the dark for 120 minutes. The Alphascreen signal generated by the reaction was detected on the Envision Plate Reader. Inhibition data were calculated from an Alphascreen signal generated by the no protein control reactions for 100% inhibition and vehicle-only reactions for 0% inhibition. […]
Biotinylated SMAC peptide, 4 μg/mL Alphascreen detection reagents, and 0.5% DMSO. Dose response curves were generated to determine the concentration required for inhibiting 50% of the activity (IC50). Compounds were dissolved at 10 mM in dimethylsulfoxide (DMSO) and evaluated at eleven concentrations. IC50 values were derived by non-linear regression analysis.
(In general: In Alpha technology, singlet oxygen from a donor bead excites a nearby acceptor bead.)

The target of data set [3] is T2, N-His-Tb-BIR3(241-356, XIAP) (Homo sapiens, UniProt P98170).
T2 construct: additions of N-His-Tb-BIR3(241-356, XIAP), fluoresceinated modified SMAC peptide; Tb (meaning not explained; sits between His tag and BIR3) (N)
T2 sequence (P98170 241-356): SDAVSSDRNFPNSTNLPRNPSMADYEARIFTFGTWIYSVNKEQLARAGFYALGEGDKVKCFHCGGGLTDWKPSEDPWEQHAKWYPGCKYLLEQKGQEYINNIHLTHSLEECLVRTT
As to the kind of experiment: XIAP-BIR3 SMAC Peptide Fluorescence Polarization Assay (FPA). It is filed as binding. The method, then: A. XIAP-BIR3 SMAC Peptide Fluorescence Polarization Assay (FPA) Assays were performed in black, flat-bottom, 384-well plates. The final assay volume was 50 μL prepared from additions of N-His-Tb-BIR3(241-356, XIAP), fluoresceinated modified SMAC peptide, and test compounds in assay buffer consisting of 20 mM Sodium Phosphate, 1 mM EDTA, 50 mM NaCl, and 0.05% Pluronic F68. The reaction was incubated at room temperature for 60 minutes and fluorescence polarization of the reaction was detected on the LJL Plate Reader. Inhibition data were calculated from mP values generated by the no protein control reactions for 100% inhibition and vehicle-only reactions for 0% inhibition. The final concentration of reagents in the assay was 130 nM N-His-Tb-BIR3(241-356, XIAP), 1.4 nM fluoresceinated modified SMAC peptide, and 1% DMSO. Dose response curves were generated to determine the concentration required for inhibiting 50% of polarization activity (IC50). Compounds were dissolved at 10 mM in dimethylsulfoxide (DMSO) and evaluated at eleven concentrations. IC50 values were derived by non-linear regression analysis.
On the technique in general: Fluorescence polarisation rises when a labelled molecule tumbles more slowly, as on binding a larger partner.

Data set [4] has as its target T3, His-BIR2-3 (125-356, C202A/C213G, XIAP) (Homo sapiens, UniProt P98170, C202A/C213G).
T3 construct: additions of His-BIR2-3 (125-356, C202A/C213G, XIAP), fluorescein labeled dimeric SMAC peptide
The experiment in a line: XIAP-BIR2-3 Dimeric SMAC Peptide Homogeneous Time Resolved Fluorescence (HTRF) Assay. As to conditions: fluorescein labeled dimeric SMAC peptide. Type of data set: binding.

The target of data set [5] is T4, His-BIR3 (241-356, XIAP) (Homo sapiens, UniProt P98170).
T4 construct: additions of His-BIR3 (241-356, XIAP), fluorescein labeled SMAC peptide
T4 sequence (P98170 241-356): as above
The experiment in a line: XIAP-BIR3/SMAC Homogeneous Time Resolved Fluorescence (HTRF) Assay. It is filed as binding. The following applies: fluorescein labeled SMAC peptide. Background: Time-resolved FRET reads energy transfer from a long-lived donor to a nearby acceptor.

Where [6] appears, read: biotinylated SMAC peptide, read-out: BIR2 ALPHA IC50.
[7] abbreviates: read-out: BIR2 ALPHA IC50, biotinylated SMAC peptide.
Setting [8] is: fluorescence polarization, fluoresceinated modified SMAC peptide, read-out: BIR3 FPA IC50.
[9] abbreviates: read-out: BIR3 FPA IC50, fluorescence polarization, fluoresceinated modified SMAC peptide.

T3 sequence (P98170 125-356 C202A/C213G): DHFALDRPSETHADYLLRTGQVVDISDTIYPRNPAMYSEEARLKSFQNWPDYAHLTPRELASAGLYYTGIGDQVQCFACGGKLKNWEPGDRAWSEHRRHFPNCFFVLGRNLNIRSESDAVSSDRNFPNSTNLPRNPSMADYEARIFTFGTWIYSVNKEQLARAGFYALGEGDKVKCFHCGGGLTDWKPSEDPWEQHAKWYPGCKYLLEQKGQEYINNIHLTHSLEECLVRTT

In the case of “(S)-tert-butyl 2-((S)-2-((2S,4S)-4-((5-((4-((S)-2-((S)-2-((2S,4S)-4-allyl-1-((S)-2-((S)-2-((tert-butoxycarbonyl)(methyl)amino)propanamido)-3,3-dimethylbutanoyl)pyrrolidine-2-carboxamido)-3-(naphthalen-2-yl)propanamido)-3-(cyclopropanesulfonamido)-3-oxopropyl)phenoxy)methyl)-1H-1,2,3-triazol-1-yl)-1-((S)-2-((S)-2-((tert-butoxycarbonyl)(methyl)amino)propanamido)-3,3-dimethylbutanoyl)pyrrolidine-2-carboxamido)-3-(naphthalen-2-yl)propanamido)-3-(4-(allyloxy)phenyl)propanoate”, the ring closure, isolated yield in data set [1] (37-membered ring, 2 steps) came out at 2%.
With `CN[C@@H](C)C(=O)N[C@H](C(=O)N1C[C@@H]2C[C@H]1C(=O)N[C@@H](Cc1ccc3ccccc3c1)C(=O)N[C@H](C(=O)O)COC/C=C/CO[C@H]1C[C@@H](C(=O)N[C@@H](Cc3ccc4ccccc4c3)C(=O)N[C@H](C(=O)O)CCC(=O)N2)N(C(=O)[C@@H](NC(=O)[C@H](C)NC)C(C)(C)C)C1)C(C)(C)C` [Example 34], the pIC50 in data set [2] (setting [6]) is 7.47; in data set [3] it was 7.40.
Regarding “(S)-Methyl 2-((S)-2-((2S,4S)-4-allyl-1-((S)-2-((S)-2-((tert-butoxycarbonyl)(methyl)amino)propanamido)-3,3-dimethylbutanoyl)pyrrolidine-2-carboxamido)-3-(naphthalen-2-yl)propanamido)-3-(4-(((E)-4-((3S,5S)-5-(((S)-1-(((S)-3-(4-(allyloxy)phenyl)-1-(cyclopropanesulfonamido)-1-oxopropan-2-yl)amino)-3-(naphthalen-2-yl)-1-oxopropan-2-yl)carbamoyl)-1-((S)-2-((S)-2-((tert-butoxycarbonyl)(methyl)amino)propanamido)-3,3-dimethylbutanoyl)pyrrolidin-3-yl)but-2-en-1-yl)oxy)phenyl)propanoate”, the ring closure, isolated yield in data set [1] (38-membered ring, Grubbs I (2 portions), DCE, 1.1 mM, 55.0 °C) was found to be 64%.
Take `CNC(C)C(=O)NC(C(=O)N1CC2CC1C(=O)NC(Cc1ccc3ccccc3c1)C(=O)NC(C(=O)O)Cc1ccc(cc1)OCC=CCOC1CC(C(=O)NC(Cc3ccc4ccccc4c3)C(=O)NC(C(=O)NS(C)(=O)=O)Cc3ccc(cc3)OCc3cn2nn3)N(C(=O)C(NC(=O)C(C)NC)C(C)(C)C)C1)C(C)(C)C` (centres unmarked) [Example 5]: the results for the pIC50 in data set [2] (setting [7]) and in data set [3] (setting [8]) were 7.15 and 7.30, respectively.
Regarding `CN[C@@H](C)C(=O)N[C@H](C(=O)N1C[C@@H]2C[C@H]1C(=O)N[C@@H](Cc1ccc3ccccc3c1)C(=O)N[C@H](C(=O)O)COC/C=C/CO[C@H]1C[C@@H](C(=O)N[C@@H](Cc3ccc4ccccc4c3)C(=O)N[C@H](C(=O)O)Cc3ccc(cc3)C(=O)N2)N(C(=O)[C@@H](NC(=O)[C@H](C)NC)C(C)(C)C)C1)C(C)(C)C` [Example 39], the results for the pIC50 in data set [2] (setting [6]) and in data set [3] were 7.39 and 7.50, respectively.
As to `CNC(C)C(=O)NC(C(=O)N1CC2CC1C(=O)NC(Cc1ccc3ccccc3c1)C(=O)NC(C(=O)O)Cc1ccc(cc1)OCC=CCOC1CC(C(=O)NC(Cc3ccc4ccccc4c3)C(=O)NC(C(=O)O)CCCC(=O)N2)N(C(=O)C(NC(=O)C(C)NC)C(C)(C)C)C1)C(C)(C)C` (centres unmarked) [Example 36], the pIC50 in data set [2] (setting [6]) is 7.41; in data set [3] (setting [9]) it was 7.31.
In the case of `CNC(C)C(=O)NC(C(=O)N1CC2CC1C(=O)NC(Cc1ccc3ccccc3c1)C(=O)NC(C(=O)O)Cc1ccc(cc1)OCC=CCOC1CC(C(=O)NC(Cc3ccc4ccccc4c3)C(=O)NC(C(=O)O)CCC(=O)N2)N(C(=O)C(NC(=O)C(C)NC)C(C)(C)C)C1)C(C)(C)C` (centres unmarked) [Example 33], the pIC50 in data set [2] (setting [6]) is 7.67; in data set [3] (setting [9]) it was 7.50; in data set [4], 8.02; in data set [5], 7.07.
In the case of `CNC(C)C(=O)NC(C(=O)N1CC2CC1C(=O)NC(Cc1ccc3ccccc3c1)C(=O)NC(C(=O)O)Cc1ccc(cc1)OCCCCOC1CC(C(=O)NC(Cc3ccc4ccccc4c3)C(=O)NC(C(=O)NS(C)(=O)=O)Cc3ccc(cc3)OCc3cn2nn3)N(C(=O)C(NC(=O)C(C)NC)C(C)(C)C)C1)C(C)(C)C` (centres unmarked) [Example 8], the pIC50 in data set [2] (setting [7]) was 6.72; in data set [3] (setting [8]) it was 7.30.
`CN[C@@H](C)C(=O)N[C@H](C(=O)N1C[C@@H]2C[C@H]1C(=O)N[C@@H](Cc1ccc3ccccc3c1)C(=O)N[C@H](C(=O)O)C/C=C/CO[C@H]1C[C@@H](C(=O)N[C@@H](Cc3ccc4ccccc4c3)C(=O)N[C@H](C(=O)O)CC(=O)N2)N(C(=O)[C@@H](NC(=O)[C@H](C)NC)C(C)(C)C)C1)C(C)(C)C` [Example 43]: the pIC50 in data set [2] (setting [6]) was 6.83; in data set [3], 7.13.
For the compound `CNC(C)C(=O)NC(C(=O)N1CC2CC1C(=O)NC(Cc1ccc3ccccc3c1)C(=O)NC(C(=O)O)Cc1ccc(cc1)OCC=CCOC1CC(C(=O)NC(Cc3ccc4ccccc4c3)C(=O)NC(C(=O)O)Cc3ccc(cc3)C(=O)N2)N(C(=O)C(NC(=O)C(C)NC)C(C)(C)C)C1)C(C)(C)C` (centres unmarked) [Example 32], the pIC50 was 7.79 in data set [2] (setting [6]) and 7.44 in data set [3] (setting [9]).
On to `CN[C@@H](C)C(=O)N[C@H](C(=O)N1C[C@@H]2C[C@H]1C(=O)N[C@@H](Cc1ccc3ccccc3c1)C(=O)N[C@H](C(=O)O)C/C=C/CO[C@H]1C[C@@H](C(=O)N[C@@H](Cc3ccc4ccccc4c3)C(=O)N[C@H](C(=O)O)CCC(=O)N2)N(C(=O)[C@@H](NC(=O)[C@H](C)NC)C(C)(C)C)C1)C(C)(C)C` [Example 35], for which the results for the pIC50 in data set [2] (setting [6]) and in data set [3] were 7.31 and 7.32, respectively.
For the compound `CN[C@@H](C)C(=O)N[C@H](C(=O)N1C[C@@H]2C[C@H]1C(=O)N[C@@H](Cc1ccc3ccccc3c1)C(=O)N[C@H](C(=O)O)Cc1ccc(cc1)OC/C=C/CO[C@H]1C[C@@H](C(=O)N[C@@H](Cc3ccc4ccccc4c3)C(=O)N[C@H](C(=O)O)CC(=O)N2)N(C(=O)[C@@H](NC(=O)[C@H](C)NC)C(C)(C)C)C1)C(C)(C)C` [Example 41], the pIC50 in data set [2] (setting [6]) was 7.34; in data set [3] it was 7.33.
Taken in the same sequence, the figures for `CN[C@@H](C)C(=O)N[C@H](C(=O)N1C[C@@H]2C[C@H]1C(=O)N[C@@H](Cc1ccc3ccccc3c1)C(=O)N[C@H](C(=O)O)C/C=C/CO[C@H]1C[C@@H](C(=O)N[C@@H](Cc3ccc4ccccc4c3)C(=O)N[C@H](C(=O)O)Cc3ccc(cc3)C(=O)N2)N(C(=O)[C@@H](NC(=O)[C@H](C)NC)C(C)(C)C)C1)C(C)(C)C` [Example 40] were 7.35 and 7.58.
The corresponding values for `CN[C@@H](C)C(=O)N[C@H](C(=O)N1C[C@@H]2C[C@H]1C(=O)N[C@@H](Cc1ccc3ccccc3c1)C(=O)N[C@H](C(=O)O)COC/C=C/CO[C@H]1C[C@@H](C(=O)N[C@@H](Cc3ccc4ccccc4c3)C(=O)N[C@H](C(=O)O)CC(=O)N2)N(C(=O)[C@@H](NC(=O)[C@H](C)NC)C(C)(C)C)C1)C(C)(C)C` [Example 42] are 7.13 and 7.36.
In the case of `CN[C@@H](C)C(=O)N[C@H](C(=O)N1C[C@@H]2C[C@H]1C(=O)N[C@@H](Cc1ccc3ccccc3c1)C(=O)N[C@H](C(=O)O)C/C=C/CO[C@H]1C[C@@H](C(=O)N[C@@H](Cc3ccc4ccccc4c3)C(=O)N[C@H](C(=O)O)CCCC(=O)N2)N(C(=O)[C@@H](NC(=O)[C@H](C)NC)C(C)(C)C)C1)C(C)(C)C` [Example 38], the negative logarithm of the IC50 (pIC50) in data set [2] (setting [6]) is 6.93; in data set [3], 7.38.
For the compound `CN[C@@H](C)C(=O)N[C@H](C(=O)N1C[C@@H]2C[C@H]1C(=O)N[C@@H](Cc1ccc3ccccc3c1)C(=O)N[C@H](C(=O)O)COC/C=C/CO[C@H]1C[C@@H](C(=O)N[C@@H](Cc3ccc4ccccc4c3)C(=O)N[C@H](C(=O)O)CCCC(=O)N2)N(C(=O)[C@@H](NC(=O)[C@H](C)NC)C(C)(C)C)C1)C(C)(C)C` [Example 37], the pIC50 in data set [2] (setting [6]) was 7.24; in data set [3], 7.48.
